“And” between values parts separate entries of the source, which are not always exact repeats. Equal values may be shown once. “Also recorded” adds a separate entry of the source.
How the values were obtained:
3T3-L1 adipocytes = assay: [^3H]-2-Deoxy-D-glucose uptake assay in differentiated 3T3-L1 adipocytes; format: cell-based; conditions: test compounds for 2 days; LNO2 1-10 μM
Protocol: [^3H]-2-Deoxy-D-glucose Uptake Assay in Differentiated 3T3-L1 Adipocyte. [^3H]-2-Deoxy-D-glucose uptake assay as previously described (19) 3T3-L1 preadipocytes were grown in 24-well tissue culture plates, 2-day postconfluent preadipocytes were treated by 10 μg/ml insulin (Sigma), 1 μM dexamethasone (Sigma), and 0.5 mM 3-isobutyl-1-methylxanthine (Sigma) in DMEM containing 10% FBS for two days, then cells were kept in 10 μg/ml insulin also in DMEM containing 10% FBS for 6 days (changed medium every three days). Eight days after induction of adipogenesis, test compounds in DMEM containing 10% FBS were added for an additional 2 days (changed medium every day) and PPARγ-specific antagonist GW9662 were pretreated 1 h before other additions. After two rinses with serum-free DMEM, cells were incubated for 3 h in serum-free DMEM and rinsed at room temperature three times with freshly prepared KRPH buffer (5 mM phosphate buffer, 20 mM HEPES, 1 mM MgSO4, 1 mM CaCl2, 136 mM NaCl, 4.7 mM KCl, pH 7.4). The buffer was replaced with 1 μCi/ml of [^3H]-2-deoxy-D-glucose in KRPH buffer for 10 min at room temperature. The treated cells were rinsed carefully three times with cold PBS, lysed overnight in 0.8N NaOH (0.4 ml/well), and neutralized with […] of 12N HCl. Lysate (360 μl) was added to 4 ml Scinti-Safe Plus TM 50% in a scintillation vial, and the vials were mixed and counted.
[^3H]-2-Deoxy-D-glucose uptake assay in differentiated 3T3-L1 adipocytes. [^3H]-2-deoxy-D-glucose uptake was analyzed as previously (23). […] Cells were then rinsed three times with cold PBS, lysed overnight in 0.8 N NaOH (0.4 ml/well), neutralized with 26.6 μl of 12 N HCl and 360 μl of lysate was added into 4 ml Scinti-Safe Plus™ 50% for radioactivity determination by liquid scintillation counting.

[1] = LNO2 and OA-NO2 decay in phosphate buffer; format: physicochemical; conditions: 3 μM, 100 mM phosphate buffer, pH 7.4, 37° C.
Protocol: LNO2 and OA-NO2 decay. […] During the two hour incubation, aliquots were removed and analyzed for LNO2 and OA-NO2 content. […] Non-decayed LNO2 and OA-NO2 were quantitated via HPLC ESI-MS/MS as described above.

[2] = Storage stability in CH3OH under argon at −80° C.; format: physicochemical; conditions: in CH3OH/methanol under argon at −80° C.
Protocol: LNO2 synthesis. Linoleic acid/HgCl2/phenylselenium bromide/NaNO2 (1:1.3:1:1, mol/mol) were combined in THF/acetonitrile (1:1, v/v) with a final concentration of 0.15 M linoleic acid. Care was taken to use anhydrous solvents, dry glassware and reagents that had been dried in vacuo over phosphorus pentoxide. The reaction mixture was stirred (4 h, 25° C.) followed by centrifugation to sediment the precipitate. The supernatant was recovered, the solvent evaporated in vacuo, the product mixture redissolved in THF (original volume) and the temperature reduced to 0° C. A 10-fold molar excess of H2O2 was slowly added with stirring to the mixture then allowed to rest in an ice bath for 20 min followed by a gradual warming to room temp (45 min). The product mixture was extracted with equal parts saturated NaCl and diethyl ether, the organic phase collected, the solvent removed in vacuo and the lipid products were resolvated in CH2Cl2/CH3OH (4:1, v/v). […] Under these conditions, purified nitrated linoleic acid is stable for >3 months. Large scale purification of the individual positional isomers was performed by preparative HPLC using a 250×21.2 mm C18 Phenomenex Luna column (5 μm particle size). […]

3T3-L1 preadipocytes = conditions: for 3T3-L1 preadipocyte differentiation induced: two weeks, oil red O, LNO2 3 μM, OA-NO2 1 μM

Substance	[^3H]-2-deoxy-D-glucose uptake (3T3-L1 adipocytes)	decay after 2 hr [1]	share degraded after 2 hr [1] [%]	time stable on storage [2] [months]	3T3-L1 preadipocyte differentiation induced (3T3-L1 preadipocytes)	expression of adipocyte markers (PPARγ2 and aP2) (3T3-L1 preadipocytes; immunoblot of cell lysate)
9- and 10-nitro-9-cis-octadecenoic acid [OA-NO2]	induced an increase; also recorded: induced significant increases in glucose uptake	only minimal decay	25	> 3	~60%	
10-nitro-9,12-octadecadienoic acid and 12-nitro-9,12-octadecadienoic acid [LNO2]	dose-dependent increase in glucose uptake; also recorded: greater than that observed for equimolar 15-deoxy-PGJ2, equivalent to Rosiglitazone; also recorded: paralleled		~80	> 3	> 30% and ~30%	resulted in expression of specific adipocyte markers

From US9867795B2, “Nitrated lipids and methods of making and using thereof” (The UAB Research Foundation, priority 2004, dated 2018)
